pKi: −log10 of the molar value. Counter-ions that a name gives are not always drawn.

Results on 32 compounds are retold here after patent publication US8071600B2, “Derivatives of 4-piperazin-1-yl-4-benzo[B]thiophene suitable for the treatment of CNS disorders” (Otsuka Pharmaceutical Co., Ltd., priority 2005, dated 2011).

Data set [1] has as its target T1, Serotonin 5-HT2A receptor (Rattus norvegicus, UniProt P14842).
T1 construct: from tissue; host or cells: Wistar rat brain, frontal cortex membranes
Description: Serotonin 5-HT2A receptor binding assay ([3H]-Ketanserin). Particulars: Serotonin 5-HT2A receptor binding test, rat frontal cortex membrane, Ki calculated from IC50 by Cheng-Prussoff formula. The protocol: 2) Serotonin 5-HT2A Receptor Binding Assay
The assay was performed according to the method by Leysen J E et al. (Leysen J E, Niemegeers C J E, Van Nueten J M and Laduron P M. [3H] Ketanserin (R 41 468), a selective 3H-ligand for serotonin 2 receptor binding sites. Mol. Pharmacol., 1982, 21: 301-314).
Wistar male rats were decapitated, the brain was retrieved immediately and frontal cortex was taken out. It was homogenized in 0.25 M sucrose of a volume 10 times of the weight of the tissue using a Teflon glass homogenizer, and centrifuged at 4° C., 1,000×g for 10 minutes. The obtained supernatant was transferred to another centrifuge tube and suspended in 0.25 M sucrose of a volume 5 times of the weight of the tissue and the precipitate was centrifuged in the above-described condition. The obtained supernatant was combined with the supernatant obtained above and adjusted to a volume 40 times of the weight of the tissue with 50 mM Tris-hydrochloric acid buffer (pH 7.4), and centrifuged at 4° C., 35,000×g for 10 minutes. The obtained precipitate was suspended again in the above-described buffer of a volume 40 times of the weight of the tissue and centrifuged in the above-described condition. The obtained precipitate was suspended in the above-described buffer of a volume 20 times of the weight of the tissue and preserved by freezing at −85° C. till it was used for binding assay as a membrane specimen.
The binding assay was performed using 40 μl of the membrane specimen, 20 μl of [^3H]-Ketanserin (final concentration 1 to 3 nM), 20 μl of a test drug and 50 mM Tris-hydrochloric acid buffer (pH 7.4) so that the total amount was 200 μl (final dimethylsulfoxide concentration 1%). The reaction was performed at 37° C. for 20 minutes and terminated by conducting suction filtration with a cell harvester on a glass fiber filter plate.
The filter plate made of glass fiber was washed with 50 mM Tris-hydrochloric acid buffer (pH 7.4), and after dried, a microplate liquid scintillation cocktail was added and the radioactivity was measured with a microplate scintillation counter. Radioactivity in the presence of 10 μM spiperone was assumed as nonspecific binding.
(§1) IC50 value was calculated from concentration-dependent reaction using a non-linear analysis program. Ki value was calculated from IC50 value using Cheng-Prussoff formula.

The target in the next data set is T2, Dopamine D2 receptor (Rattus norvegicus, UniProt P61169).
T2 construct: from tissue; host or cells: Wistar rat brain, corpus striatum membranes
In words: Dopamine D2 receptor binding assay ([3H]-raclopride). Particulars: Dopamine D2 receptor binding test, rat corpus striatum membrane, Ki calculated from IC50 by Cheng-Prussoff formula. As for the experimental part: 1) Dopamine D2 Receptor Binding Assay
The assay was performed according to the method by Kohler et al. (Kohler C, Hall H, Ogren S O and Gawell L, Specific in vitro and in vivo binding of 3H-raclopride. A potent substituted benzamide drug with high affinity for dopamine D-2 receptors in the rat brain. Biochem. Pharmacol., 1985; 34: 2251-2259).
Wistar male rats were decapitated, the brain was retrieved immediately and corpus striatum was taken out. It was homogenized in 50 mM tris(hydroxymethyl)aminomethane (Tris)-hydrochloric acid buffer (pH 7.4) of a volume 50 times of the weight of the tissue using a homogenizer with a high-speed rotating blade, and centrifuged at 4° C., 48,000×g for 10 minutes. The obtained precipitate was suspended again in the above-described buffer of a volume 50 times of the weight of the tissue and after incubated at 37° C. for 10 minutes, centrifuged in the above-described condition. The obtained precipitate was suspended in 50 mM (Tris)-hydrochloric acid buffer (containing 120 mM NaCl, 5 mM KCl, 2 mM CaCl2, 1 mM MgCl2, pH 7.4) of a volume 25 times of the weight of the tissue and preserved by freezing at −85° C. till it was used for binding assay as a membrane specimen.
The binding assay was performed using 40 μl of the membrane specimen, 20 μl of [^3H]-raclopride (final concentration 1 to 2 nM), 20 μl of a test drug and 50 mM Tris-hydrochloric acid buffer (containing 120 mM NaCl, 5 mM KCl, 2 mM CaCl2, 1 mM MgCl2, pH 7.4) so that the total amount was 200 μl (final dimethylsulfoxide concentration 1%). The reaction was performed at room temperature for 1 hour and terminated by conducting suction filtration with a cell harvester on a glass fiber filter plate. The filter plate made of glass fiber was washed with 50 mM Tris-hydrochloric acid buffer (pH 7.4), and after dried, a microplate liquid scintillation cocktail was added and the radioactivity was measured with a microplate scintillation counter. Radioactivity in the presence of 10 μM (+)-butaclamol hydrochloride was assumed as nonspecific binding.
as §1

T1 sequence (P14842 whole entry): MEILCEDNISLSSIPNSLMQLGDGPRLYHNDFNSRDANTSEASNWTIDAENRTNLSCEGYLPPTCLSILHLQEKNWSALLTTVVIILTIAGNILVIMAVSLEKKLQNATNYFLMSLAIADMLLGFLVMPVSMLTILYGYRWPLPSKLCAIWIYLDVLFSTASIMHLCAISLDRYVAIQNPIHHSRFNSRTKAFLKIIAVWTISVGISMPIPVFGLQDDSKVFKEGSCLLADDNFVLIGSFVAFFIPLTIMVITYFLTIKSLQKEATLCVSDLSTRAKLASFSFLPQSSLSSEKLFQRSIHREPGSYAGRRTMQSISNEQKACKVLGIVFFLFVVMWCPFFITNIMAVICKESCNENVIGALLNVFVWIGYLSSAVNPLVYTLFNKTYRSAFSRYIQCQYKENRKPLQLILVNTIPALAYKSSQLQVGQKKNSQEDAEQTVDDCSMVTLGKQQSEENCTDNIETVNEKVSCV
T2 sequence (P61169 whole entry): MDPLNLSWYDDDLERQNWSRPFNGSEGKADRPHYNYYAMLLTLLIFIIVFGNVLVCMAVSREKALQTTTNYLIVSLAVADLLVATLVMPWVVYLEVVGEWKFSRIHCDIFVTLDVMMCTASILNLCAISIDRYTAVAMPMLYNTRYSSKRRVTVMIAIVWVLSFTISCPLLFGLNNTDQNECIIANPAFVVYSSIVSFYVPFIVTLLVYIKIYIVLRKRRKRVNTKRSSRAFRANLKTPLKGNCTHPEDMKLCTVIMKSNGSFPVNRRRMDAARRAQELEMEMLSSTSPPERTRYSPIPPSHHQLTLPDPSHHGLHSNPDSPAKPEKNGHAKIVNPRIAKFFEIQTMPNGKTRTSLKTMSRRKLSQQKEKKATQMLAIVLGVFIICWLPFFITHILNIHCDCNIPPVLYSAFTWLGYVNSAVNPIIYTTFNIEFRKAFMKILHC

Turning to `NC(=O)c1ccc(OCCCCN2CCN(c3cccc4sccc34)CC2)cc1` [Example 169], the melting point (commonly the temperature of the solid-liquid transition) lay within 150 to 151.5 °C. In data set [1], the pKi (in general, the Ki on a negative log10 scale, so that one unit is a factor of ten) was 8.59. For the same compound, the pKi at Dopamine D2 receptor is 9.05.

Take `CNC(=O)c1cnc(OCCCN2CCN(c3cccc4sccc34)CC2)cn1` [Example 61]: the melting point is 116.5 to 118 °C. Moreover, in data set [1], the negative-log Ki (pKi) is 8.31. Moreover, at Dopamine D2 receptor, the pKi was 8.30.

For `CNC(=O)c1ccc(OCCCN2CCN(c3cccc4sccc34)CC2)nc1` [Example 27], the melting point was in the range of 132.5 to 133.5 °C. Besides, in data set [1], the pKi was 9.00. Besides, the pKi at Dopamine D2 receptor is 8.82.

Regarding `COc1cc(N(C)C(C)=O)cc(C)c1OCCCN1CCN(c2cccc3sccc23)CC1.Cl` [Example 14, N-{4-[3-(4-benzo[b]thiophen-4-yl-piperazin-1-yl)propoxy]-3-methoxy-5-methylphenyl}-N-methylacetamide hydrochloride], the melting point is 230 to 234 °C (dec.). Besides, the pKi in data set [1] is 8.62. For the same compound, the pKi on Dopamine D2 receptor is 9.52.

As for `NC(=O)Cc1ccc(OCCCN2CCN(c3cccc4sccc34)CC2)cc1` [Example 340], the melting point fell in the range of 149.5 to 150.5 °C. Further, the pKi in data set [1] was 8.32. At Dopamine D2 receptor, the pKi is 8.72.

`NC(=O)c1cc(OCCCN2CCN(c3cccc4sccc34)CC2)ccn1` [Example 48]: the melting point was 150 to 150.5 °C. Besides, the pKi in data set [1] was 8.42. Moreover, the pKi on Dopamine D2 receptor is 8.64.

`CCNC(=O)Cc1ccc(OCCCN2CCN(c3cccc4sccc34)CC2)cc1` [Example 323] returned a melting point of 112.5 to 113.5 °C. Besides, in data set [1], the negative logarithm of the Ki (pKi) is 9.15. Also, the negative-log Ki (pKi) at Dopamine D2 receptor was 8.82.

`CNC(=O)c1csc(OCCCN2CCN(c3cccc4sccc34)CC2)n1.Cl` [Example 6, N-methyl-2-[3-(4-benzo[b]thiophen-4-yl-piperazin-1-yl)propoxy]thiazole-4-carboxamide hydrochloride] yielded a melting point of 199.5 to 202.5 °C. The pKi in data set [1] was 8.48. For the same compound, at Dopamine D2 receptor, the pKi was 9.15.

Turning to `CNC(=O)c1cc(C)c(OCCCN2CCN(c3cccc4sccc34)CC2)c(C)c1` [Example 241], the melting point fell in the range of 152.5 to 154.5 °C. Further, in data set [1], the pKi was 9.15. Moreover, at Dopamine D2 receptor, the pKi is 9.40.

In the case of `CNC(=O)c1ccc(OCCCN2CCN(c3cccc4sccc34)CC2)c(N)c1` [Example 232], the melting point lay within 124 to 125.5 °C. Further, the pKi in data set [1] was 8.57. Besides, the pKi on Dopamine D2 receptor was 8.96.

`COc1cc(C(N)=O)cc(OC)c1OCCCN1CCN(c2cccc3sccc23)CC1` [Example 243] returned a melting point of 147.5 to 148 °C. The pKi in data set [1] was 9.30. Also, the pKi at Dopamine D2 receptor is 9.70.

The compound `COc1cc(C(N)=O)ccc1OCCCN1CCN(c2cccc3sccc23)CC1` [Example 190] registered a melting point of 162 to 163.5 °C. The pKi in data set [1] is 9.22. Further, the negative logarithm of the Ki (pKi) on Dopamine D2 receptor was 8.92.

Compound `CNC(=O)c1ccc(OCCCN2CCN(c3cccc4sccc34)CC2)c(C)c1` [Example 186] came in with a melting point of 156.5 to 158 °C. Moreover, the pKi in data set [1] is 8.70. Also, at Dopamine D2 receptor, the negative-log Ki (pKi) was 8.89.

For `CC(=O)Nc1ccc(OCCCN2CCN(c3cccc4sccc34)CC2)cc1` (as salt: hydrochloride) [Example 343], the melting point was 283 to 285 °C.

Regarding `COC(=O)N1CCN(c2cc(C=O)c(OCCCN3CCN(c4cccc5sccc45)CC3)c(OC)c2)CC1` (as salt: hydrochloride) [Example 1086], the melting point was 225 °C (dec.).

`NS(=O)(=O)c1ccc(OCCCN2CCN(c3cccc4sccc34)CC2)cc1` [Example 394] registered a melting point of 199 to 203 °C. Moreover, in data set [1], the pKi was 8.33. The pKi on Dopamine D2 receptor is 8.42.

Take `CCNCc1ccc(OCCCN2CCN(c3cccc4sccc34)CC2)cc1` (as salt: hydrochloride) [Example 286]: the melting point was 228 to 241 °C (dec.).

Compound `CCNC(=O)c1csc(OCCCN2CCN(c3cccc4sccc34)CC2)n1` (as salt: hydrochloride) [Example 73] yielded a melting point of 151 to 153.5 °C.

`CNC(=O)c1cc(C)c(OCCCN2CCN(c3cccc4sccc34)CC2)c(OC)c1` [Example 252] yielded a melting point of 141.5 to 142.5 °C. Also, the pKi in data set [1] was 9.52. In addition, the pKi on Dopamine D2 receptor is 9.52.

Take `CNC(=O)c1ccc(OCCCCN2CCN(c3cccc4sccc34)CC2)cc1` [Example 170]: the melting point lay in the range of 154 to 156 °C. Further, the negative logarithm of the Ki (pKi) in data set [1] was 8.48. In addition, at Dopamine D2 receptor, the pKi was 9.00.

Compound `NC(=O)c1ccc(F)c(OCCCN2CCN(c3cccc4sccc34)CC2)c1` [Example 271] returned a melting point of 156.5 to 159 °C. Besides, the pKi in data set [1] was 9.22. Further, the pKi on Dopamine D2 receptor is 8.92.

As for `CN(C)c1cc(OCCCCN2CCN(c3cccc4sccc34)CC2)n(C)n1` (as salt: hydrochloride) [Example 1138], the melting point fell in the range of 156.5 to 158.5 °C.

As to `CN(C)Cc1ccc(OCCCN2CCN(c3cccc4sccc34)CC2)c(Cl)c1` (as salt: hydrochloride) [Example 303], the melting point is 259 °C (dec.).

Consider `C=CCn1nc(C(=O)NC)cc1OCCCN1CCN(c2cccc3sccc23)CC1` [Example 3098, 1-allyl-5-[3-(4-benzo[b]thiophen-4-yl-piperazin-1-yl)propoxy]-1H-pyrazole-3-carboxylic acid methylamide], for which the melting point was in the range of 138.5 to 140.5 °C.

`Cl.c1cc(N2CCN(CCCOc3ccc4c(c3)NCCO4)CC2)c2ccsc2c1` returned a melting point of 207.9 to 208.8 °C.

`Cn1nc(C(=O)O)cc1OCCCN1CCN(c2cccc3sccc23)CC1` [Example 2, 5-[3-(4-benzo[b]thiophen-4-yl-piperazin-1-yl)propoxy]-1-methyl-1H-pyrazole-3-carboxylic acid] yielded a melting point of 114.5 to 118 °C.

The compound `CCNC(=O)c1ccc(OCCCN2CCN(c3cccc4sccc34)CC2)nc1` (as salt: hydrochloride) [Example 26] gave a melting point of 201.5 to 207.5 °C.

As for `c1cc(N2CCN(CCCCOc3ccncc3)CC2)c2ccsc2c1` (as salt: hydrochloride) [Example 80], the melting point lay within 183 to 185 °C.

Regarding `Cn1cnc2ccc(OCCCN3CCN(c4cccc5sccc45)CC3)cc2c1=O` (as salt: hydrochloride) [Example 95], the melting point was 252.9 to 254.3 °C.

As to `COc1cc(N2CCOC2=O)cc(C)c1OCCCN1CCN(c2cccc3sccc23)CC1` (as salt: hydrochloride) [Example 358], the melting point is 247.5 to 251 °C (dec.).

`CCNC(=O)c1ccnc(OCCCN2CCN(c3cccc4sccc34)CC2)c1` (as salt: hydrochloride) [Example 32] displayed a melting point of 140 to 141.5 °C.

For `CNC(=O)c1ccc(OC)c(OCCCN2CCN(c3cccc4sccc34)CC2)c1` (as salt: hydrochloride) [Example 281], the melting point was 163.5 to 165 °C.
